Results taken from US20200247855A1, “THERAPY AND DIAGNOSTICS” (OXFORD UNIVERSITY INNOVATION LIMITED, priority 2017, published 2020).
No end group written: not given here.

Columns and labels:
CCL8_HUMAN = target: T1, CCL8_HUMAN (Homo sapiens, UniProt P80075); experiment: Neutralisation of chemokine induced THP-1 cell migration; assay type: cell-based
T1 sequence (P80075 24-99): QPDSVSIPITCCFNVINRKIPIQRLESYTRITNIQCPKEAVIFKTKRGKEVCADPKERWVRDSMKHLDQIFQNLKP
Procedure: Table 1. Tick CKBPs described in PCT/GB2017/050563 and [17]. Tick peptide sequences isolated in yeast surface display fluorescent-activated cell sorting (FACS) screens using a labelled chemokine. Identity with Evasin-1, 4 or 3 was calculated using BLAST. Abbreviations: IXORI—Ixodes ricinus, RHISA—Rhipicephalus sanguineus, AMBMA—Amblyomma maculatum, AMBPA—Amblyomma parvum, AMBTR—Amblyomma triste, AMBAM—Amblyomma americanum, AMBCA—Amblyomma cajennense, RHIPU—Rhipicephalus pulchellus. Table 2A-C. Binding characteristics of tick CKBPs previously disclosed (PCT/GB2017/050563 and [17]). All members of the human chemokine family[164] are listed in column 1. Binding to human chemokines was determined for 14 tick CKBPs using biolayer interferometry (BLI) with calculated Kd shown as Molar (Moles/Litre). Binding data for 17 other novel tick CKBPs was assayed using yeast surface display[17,166],with positive binding results shown as “YES”. For biolayer interferometry, His-tagged purified tick CKBP was bound to a Ni-NINTA sensor on an OctetRed® 384 system, and then binding to each chemokine listed (with the exception of CCL25, CCL26, CXCL16, CXCL17, CXCL4L1, XCL2) was assayed in a cross-binding screen at a chemokine concentration of 300 nM as described. For those chemokines showing binding to a tick CKBP in the cross-binding screen, binding assays were repeated using different doses of chemokine. Association, equilibrium and dissociation data were analysed using Octet software to create corresponding fitted curves, and used to calculate Kd. For yeast surface display, (YSD) background fluorescence was controlled for by using either an empty vector or by omitting the chemokine (i.e. using streptavidin-Alexa647 alone). An arbitrary threshold of >3 fold over background mean fluorescence intensity was chosen to describe confirmed re-tests. Where binding was detected data are indicated as “YES”. […] For yeast surface display data, empty cells represent chemokines that were not tested. Binding data published in relation to previously described tick CKBPs (Evasins-1, 4 and 3) is also shown for comparison in each of FIGS. 2A-C, with the relevant data obtained from publications: [20-22,32]. Table 3: Neutralisation of human chemokines by tick CKBPs previously disclosed (PCT/GB2017/050563 and [17]). Neutralising activity was determined using a quantitative THP1 cell migration assay in a 96-well Boyden chamber with chemokine in the bottom chamber as described. Cells migrating through to the bottom chamber at 4 hours were counted using flow cytometry in a 96 well plate format. IC50 for neutralisation was determined at the chemokine EC80 dose as determined using a range of tick CKBP concentrations. Data was analysed using GraphPad Prism to determine IC50, which is shown as Molar (Moles/Litre). Empty cells represent experiments not done. Table 4—Other previously described tick CKBPs. Tick CKBPs that were also described in PCT/GB2017/050563 and Singh et al. are indicated in “Notes”. Table 5.—Novel tick CKBPs of the invention. Table 6. […] The peptide sequence prefix indicates the identity, and suffix indicate the tick species as follows: AMBCA, Amblyomma cajennense and IXORI, Ixodes ricinus. […] Individual yeast clones recovered from the library were re-tested using a FACS (fluorescence activated cell sorting), experiment. The binding of the peptide to the chemokine was assayed by measuring the percent (%), of yeast cells expressing the given peptide that exceeded a background threshold set by measuring the fluorescence of the yeast library pool treated with streptavidin-[…] alone. When more than one independent yeast clone was isolated for a given peptide-chemokine combination, the mean percent shift was calculated and reported in column 3.

CCL8 homodimer = target: T2, CCL8 homodimer (Homo sapiens, UniProt P80075); experiment: Native mass spectrometry of CCL8 with peptide; conditions: 1:1 CCL8 monomer:BK1.1
T2 construct: purchased Peprotech (UK)
T2 sequence (P80075 24-99): T1 sequence (P80075 24-99)
Procedure: Mid panel: In-solution dissociation of CCL8 dimer and further binding of CCL8 to one and two BK-1. Confirmation of CCL8/BK-1 complex by HCD gas-phase dissociation of isolated precursor ions: Bottom panel, left: 2217 m/z corresponding to CCL8/BK-1 (1:1) and Bottom panel, […]: 2555 m/z corresponding to CCL8/BK-1 (1:2). Buffers contained up to 0.5% DMSO. All analyses were performed in triplicate.
Samples were analysed using a modified Q-Exactive mass spectrometer (Thermo Fisher Scientific) for high-mass range measurements (Gault, J. et al., Nature methods [2016]). CCL8 was buffered exchanged into 200 mM ammonium acetate solution (pH=6.5). […] In all cases no more than 0.5% DMSO was present in the final mixture, and a control sample of CCL8 homodimer containing 0.5% DMSO was also analysed. Instrumental parameters were set to: capillary voltage of 1.2 KV, source temperature of 50° C. and 60 V of source induced dissociation (SID). Gas phase dissociation was carried out by applying 35 and 55 V of higher-energy collisional dissociation (HCD) to the most intense charge state after isolation (25 m/z window). Spectra was acquired using a mass resolution of 60,000 for both precursor and dissociated product ions. All measurements were done in triplicates.

**Q.** Which results are given for EDEDYEDFFKPVTAYF-NH2 [BK1.1]?
**A.** IC50 (CCL8_HUMAN): 510 nM; Effect on CCL8 homodimerization (CCL8 homodimer): disrupt CCL8 homodimerization
